Test results taken from US20200138825A1, “METHOD OF TREATING MALIGNANT RHABDOID TUMOR OF THE OVARY (MRTO)/SMALL CELL CANCER OF THE OVARY OF THE HYPERCALCEMIC TYPE(SCCOHT) WITH AN EZH2 INHIBITOR” (Epizyme, Inc., priority 2015, published 2020).
“And” between values parts separate entries of the source, which are not always exact repeats. Equal entries are not always repeated. “Also recorded” adds a separate entry of the source. Marks after values point to notes of the source that are not given here.

What was measured:
Oral bioavailability = conditions: in vivo
MRT and MRTO/SCCOHT = experiment: Assessment of clinical activity in MRT and MRTO/SCCOHT; type: in vivo, human; conditions: MRT and MRTO/SCCOHT following treatment
[1] = tested on: INI1-negative epithelioid sarcoma; experiment: Phase 1 clinical activity, INI1-negative epithelioid sarcoma; type: in vivo, human
Protocol: (§1) Table 2 describes a Phase 1 clinical trial design (sponsor protocol no.: E7438-G000-001, ClinicalTrials.gov identifier: NCT01897571). The study population included subjects with relapsed or refractory solid tumors or B-cell lymphoma. Subjects received a 3+3 dose-escalation in expansion cohorts receiving 800 mg BID and 1600 mg BID, respectively, or a cohort for ascertaining the effect of food on dosing at 400 mg BID. The primary endpoint was a determination of recommended phase II dose (RP2D)/maximum tolerated dose (MTD). Secondary endpoints included safety, pharmacokinetics (PK), pharmacodynamics (PD) and tumor response, assessed every 8 wks.

[2] = tested on: SMARCA4-negative thoracic sarcoma; experiment: Phase 1 clinical activity, SMARCA4-negative thoracic sarcoma; type: in vivo, human; conditions: 1600 mg BID
Protocol: as §1

[3] = tested on: INI1-negative malignant rhabdoid tumor; experiment: Phase 1 clinical activity, INI1-negative malignant rhabdoid tumor; type: in vivo, human; conditions: for Best Response / Time on study: INI1-negative malignant rhabdoid tumor
Protocol: as §1

[4] = tested on: SMARCA4-negative malignant rhabdoid tumor of ovary (SCCOHT); experiment: Phase 1 clinical activity, SMARCA4-negative malignant rhabdoid tumor of ovary (SCCOHT); type: in vivo, human; conditions: for Tumor size: person, 1600 mg BID oral tablet
Protocol: as §1

TOV112D xenograft tumors = experiment: SCCOHT xenograft model (TOV112D); type: in vivo
Protocol: EZH2 target inhibition was measured by H3K27me3 levels in xenograft tissue collected on day 14 (FIG. 20B). Each point represents the ratio of H3K27me3 to total H3 from the tumor of a single animal.

[5] = tested on: JHOC-5, TYKNU, PA-1, OAW42, ES-2, COV362 cell lines; experiment: Long-term proliferation assays, single-deficient or WT ovarian cell lines; type: cell-based
[6] = tested on: Dual SMARCA2 and SMARCA4 deficient ovarian cell lines; conditions: four SMARCA2-deficient and SMARCA4-deficient cell lines
COV434 xenograft tumors = experiment: SCCOHT xenograft model (COV434); type: in vivo
Protocol: After day 28, a portion of the COV434 xenograft cohort were retained to monitor for tumor regrowth while under no treatment, of which there was none. EZH2 target inhibition was assessed by H3K27me3 levels in xenograft tissue collected on day 28 (FIG. 19B). Each point represents the ratio of H3K27me3 to total H3 from the tumor of a single animal.

[7] = human, in vivo
Protocol: as §1

[8] = tested on: H3K27me3 in INI1- and SMARCA4-negative tumors; experiment: Pharmacodynamic H3K27me3 inhibition in tumor tissue of patients; type: in vivo, human
[9] = tested on: cell lines and xenografts deficient in INI1 (SNF5/SMARCB1); conditions: Knutson et al. PNAS 2013; cited from earlier work
Bin-67 xenograft tumors = experiment: SCCOHT xenograft model (Bin-67); type: in vivo
Protocol: EZH2 target inhibition was assessed by H3K27me3 levels in xenograft tissue collected on day 18 (FIG. 18B). Each point represents the ratio of H3K27me3 to total H3 from the tumor of a single animal.

[10] = 800 mg BID, + = remains on study

Question: What does the source list for `CCN(c1cc(-c2ccc(CN3CCOCC3)cc2)cc(C(=O)NCc2c(C)cc(C)[nH]c2=O)c1C)C1CCOCC1` [tazemetostat]?
Answer: oral bioavailability (Oral bioavailability): orally bioavailable; clinical activity (MRT and MRTO/SCCOHT): stable disease for at least six months, partial remission or complete remission; Best Response ([1]; 400 mg BID): PD week 8; Time on study ([1]; 400 mg BID): 11 weeks; Best Response ([1]; 800 mg BID): partial remission (PR); also recorded: PR week 8; also recorded: SD week 8; Time on study [1, 10]: 25+ weeks and 24+ weeks; Best Response [2]: PD week 5; Time on study [2]: 6 weeks; Best Response ([3]; 400 mg BID): SD week 8; Time on study ([3]; 400 mg BID, + = remains on study): 12+ weeks; Best Response ([3]; 800 mg BID): complete remission (CR); also recorded: CR week 8*; also recorded: PD week 8; Time on study [3, 10]: 65+ weeks and 35 weeks; Time on study ([3]; 1600 mg BID): 16 weeks and 17 weeks; response ([3]; patient with INI1-negative (IHC) relapsed malignant rhabdoid tumor, Phase 1): complete response; clinical activity ([4]; Phase 1, two patients with SCCOHT (SMARCA4-negative)): Clinical activity was observed; Best Response ([4]; SMARCA4-negative SCCOHT, 1600 mg BID): PR week 8*; also recorded: SD week 8; Time on study ([4]; SMARCA4-negative SCCOHT, 1600 mg BID, + = remains on study): 25+ weeks and 26+ weeks; Tumor size ([4]; after 8 weeks): decreased from baseline; Tumor size ([4]; after 16 weeks): further decreased from the 8 week measurement; tumor volume compared to vehicle (TOV112D xenograft tumors; 14 days, twice daily): statistically significant differences in volume compared to vehicle; H3K27me3 in xenograft tumors (TOV112D xenograft tumors; after 14 days of treatment): reduction of H3K27me3; sensitivity [5]: Lower sensitivity; inhibition of cell growth [6]: Dose-dependent inhibition of cell growth; tumor volume compared to vehicle (COV434 xenograft tumors; after 28 days): statistically significant differences in volume compared to vehicle; tumor regrowth while under no treatment (COV434 xenograft tumors; after day 28): none; Anemia, All Events, All Grades [7]: 7; Anemia, All Events, Grade n [7]: 1; Anemia, All Treatment-Related, All Grades [7]: 3; Anemia, All Treatment-Related, Grade n [7]: 0; Asthenia, All Events, All Grades [7]: 28; Asthenia, All Events, Grade n [7]: 1; Asthenia, All Treatment-Related, All Grades [7]: 12; Asthenia, All Treatment-Related, Grade n [7]: 0; Constipation, All Events, All Grades [7]: 7; Constipation, All Events, Grade n [7]: 0; Constipation, All Treatment-Related, All Grades [7]: 2; Constipation, All Treatment-Related, Grade n [7]: 0; Decreased appetite, All Events, All Grades [7]: 11; Decreased appetite, All Events, Grade n [7]: 3; Decreased appetite, All Treatment-Related, All Grades [7]: 3; Decreased appetite, All Treatment-Related, Grade n [7]: 1; Dysgeusia, All Events, All Grades [7]: 5; Dysgeusia, All Events, Grade n [7]: 0; Dysgeusia, All Treatment-Related, All Grades [7]: 5; Dysgeusia, All Treatment-Related, Grade n [7]: 0; Dyspnea, All Events, All Grades [7]: 8; Dyspnea, All Events, Grade n [7]: 0; Dyspnea, All Treatment-Related, All Grades [7]: 0; Dyspnea, All Treatment-Related, Grade n [7]: 0; Elevated LFTs, All Events, All Grades [7]: 2; Elevated LFTs, All Events, Grade n [7]: 1; Elevated LFTs, All Treatment-Related, All Grades [7]: 0; Elevated LFTs, All Treatment-Related, Grade n [7]: 1; Hypertension, All Events, All Grades [7]: 3; Hypertension, All Events, Grade n [7]: 1; Hypertension, All Treatment-Related, All Grades [7]: 1; Hypertension, All Treatment-Related, Grade n [7]: 1; Muscle Spasms, All Events, All Grades [7]: 5; Muscle Spasms, All Events, Grade n [7]: 0; Muscle Spasms, All Treatment-Related, All Grades [7]: 2; Muscle Spasms, All Treatment-Related, Grade n [7]: 0; Nausea, All Events, All Grades [7]: 8; Nausea, All Events, Grade n [7]: 0; Nausea, All Treatment-Related, All Grades [7]: 7; Nausea, All Treatment-Related, Grade n [7]: 0; Neutropenia, All Events, All Grades [7]: 2; Neutropenia, All Events, Grade n [7]: 1; Neutropenia, All Treatment-Related, All Grades [7]: 1; Neutropenia, All Treatment-Related, Grade n [7]: 1; Thrombocytopenia, All Events, All Grades [7]: 10; Thrombocytopenia, All Events, Grade n [7]: 2; Thrombocytopenia, All Treatment-Related, All Grades [7]: 6; Thrombocytopenia, All Treatment-Related, Grade n [7]: 1; Vomiting, All Events, All Grades [7]: 6; Vomiting, All Events, Grade n [7]: 0; Vomiting, All Treatment-Related, All Grades [7]: 3; Vomiting, All Treatment-Related, Grade n [7]: 0; antitumor activity (G401 xenograft): antitumor activity; pharmacodynamics inhibition of HeK27me3 in tumor tissue [8]: induces pharmacodynamics inhibition of HeK27me3; sensitivity of INI1-deficient cell lines and xenografts [9]: profound sensitivity and durable regressions; tumor volume compared to vehicle (Bin-67 xenograft tumors; after 18 days): statistically significant differences in volume compared to vehicle; H3K27me3 in xenograft tumors (Bin-67 xenograft tumors; after 18 days of treatment): reduction of H3K27me3
